Consider 62 molecules from a melting point compilation (Tetko et al.; mined from patent text by program, amines drawn as free bases though some values may be those of a salt).

Take `Cc1nc(N2CCN(Cc3ccccc3)C2=O)sc1C(N)=O`: the melting point (commonly the temperature of the solid-liquid transition) lay in the range of 217 to 218 °C.

`Fc1ccc(Cn2c(NC3CCN(CCSc4nc5ccccc5o4)CC3)nc3ccccc32)cc1` had a melting point of 174 °C.

Regarding `O=C(Nc1ccc2ccc(Cl)nc2n1)c1ccc(Cl)s1`, the melting point was found to be 275 °C.

Molecule `CCOP(=O)(OCC)c1nc(NC2CC(C)(C)NC(C)(C)C2)nc(NC2CC(C)(C)NC(C)(C)C2)n1` had a melting point of 195 °C.

With `CCCc1nc2c(N)nc3cc(OCCCNS(C)(=O)=O)ccc3c2s1`, the melting point lay within 168 to 171 °C.

As for `CSC1Oc2cc3ccccc3cc2C1=O` (configuration not stated), the melting point lay within 118 to 120 °C.

Molecule `Clc1ccc(-c2cc(C3CCN(Cc4ccccc4)CC3)no2)cc1` yielded a melting point of 112 to 114 °C.

Molecule `Cc1c(C)c2c(c(Br)c1NC(=O)CC(C)(C)C)C(c1ccc(C(C)C)cc1)CO2` (configuration not stated) had a melting point of 150 to 151 °C.

Consider `Cc1cc(N=Nc2ccccn2)cc(C)c1-c1ccc(-c2c(C)cc(N=Nc3ccccn3)cc2C)o1`, for which the melting point lay within 206 to 207 °C.

The molecule `CCOC(=O)Cc1sc(Sc2nc(C)ccc2C(=O)OCC)nc1C` displayed a melting point of 95 to 97 °C.

Molecule `Cc1ccc(-c2c(F)c(F)c3c(=O)c(C(=O)O)cn(C4CC4)c3c2F)c(C)n1` had a melting point of 264 to 266 °C.

Turning to `CCOC(=O)C1=C(N)N=C(OCC)C(C(=O)OCC)C1c1ccccc1` (configuration not stated), the melting point was 119 °C.

The molecule `N#CC(C#N)=C1CC(=C(C#N)C#N)c2ccccc21` yielded a melting point of 224 to 228 °C.

For the molecule `CCOC(=O)c1cc(NS(=O)(=O)c2ccc(Cl)nc2)ccc1Oc1cncc(Cl)c1`, the melting point fell in the range of 166 to 168 °C.

In turn, `O=CN(O)C(CS(=O)(=O)c1ccc(-c2ccc(C(F)(F)F)cc2)cc1)c1ccccn1` (configuration not stated) came in with a melting point of 168 to 169 °C.

For the molecule `Cc1ccnc(C(=O)c2[nH]c3cc(F)ccc3c2CC(=O)O)c1`, the melting point was determined as 208 °C.

The molecule `CNC(=C[N+](=O)[O-])NCc1cccnc1` returned a melting point of 159 to 160 °C.

As to `CCc1nc(Cl)c(C(N)=O)n1Cc1ccc2oc(-c3ccccc3NS(=O)(=O)C(F)(F)F)c(Br)c2c1`, the melting point was 68 to 70 °C.

The molecule `Cc1cc(C)n(CCOc2cc3c(cc2C)OC2(CC(C)(C)c4cc(O)c(C)cc4O2)CC3(C)C)n1` (configuration not stated) gave a melting point of 223 to 225 °C.

In turn, `C[C@H]1c2onc(-c3ccc(Cl)cc3)c2CCC[C@H]1C(=O)O` (relative stereo) displayed a melting point of 149 to 150 °C.

The molecule `COc1ccc2c(c1)N(c1ccc(F)cc1)C(=O)C2(C)N` (configuration not stated) showed a melting point of 140 to 141 °C.

Take `CC(=O)Nc1cnc(-c2ccccc2)[nH]c1=O`: the melting point lay in the range of 281 to 282 °C.

The molecule `O=Cc1ccc(OCCN2C(=O)COc3ccccc32)cc1` had a melting point of 75 to 78 °C.

As to `COCC1CCCN1CCC1CCN(c2nc(=O)c3c(C)c(OC)c(OC)cc3[nH]2)CC1` (configuration not stated), the melting point lay in the range of 83.1 to 111 °C.

As to `CN1CCC(OC2c3ccccc3CCn3c2nc(-c2ccccc2)c3CO)CC1` (configuration not stated), the melting point stood at 120 °C.

The molecule `NC(=O)c1ccc(N2CCN(Cc3cn4cc(Br)ccc4n3)CC2)cc1` returned a melting point of 238 to 239 °C.

In the case of `Cc1ccc(CNc2nc(Cl)nc(Nc3ccc4[nH]c(=O)[nH]c4c3)n2)o1`, the melting point was 164 to 166 °C.

On to `O=c1cc(N2CCOCC2)cc(-c2ccccc2)o1`, for which the melting point lay in the range of 161 to 162 °C.

As for `O=C1NC(=O)C(=Cc2ccccc2)S1`, the melting point lay within 246 to 248 °C.

In turn, `CCNc1nc(C)c(C(=O)c2ccc(N)c(N)c2)s1` registered a melting point of 185 to 225 °C.

Take `CCOc1ccc(-c2nc(O)c(-c3ccccc3)s2)cc1`: the melting point is 214 to 216 °C.

`COc1cc2ncc(C#N)c(Nc3ccc(F)c(Cl)c3)c2cc1NC(=O)C=CCN1CCSC1` displayed a melting point of 135 to 138 °C.

The molecule `COC(=O)C=Cc1cncn1Cc1ccccc1` had a melting point of 137 to 139 °C.

For the molecule `O=C(O)c1ccc(S(=O)(=O)CCCl)cc1`, the melting point lay within 142 to 144 °C.

Regarding `CNC(=O)C(C(F)F)C(C)(C)C=NO` (configuration not stated), the melting point is 53 to 58 °C.

`O=C(Cc1ccccc1)NN(C1=NCCS1)c1ccccc1` came in with a melting point of 121 to 124 °C.

Take `CCOC(=O)c1c(SCOC)nc2cc(F)c(F)cc2c1O`: the melting point is 123 to 127 °C.

`COC(=O)c1ccc(CC(C)NCC(O)c2ccc(Cl)cc2)cc1` (configuration not stated): the melting point lay in the range of 134 to 135 °C.

Consider `CCOCC1COc2c(cc3ncc(C(=O)O)c(O)c3c2Cl)O1` (configuration not stated), for which the melting point was in the range of 266 to 267 °C.

In the case of `O=c1cc(C(F)(F)F)[nH]c(=O)n1-c1ccc(Cl)cc1F`, the melting point came to 189 °C.

On to `CC(C)C(=O)N(O)C(C)c1cc2ccccc2s1` (configuration not stated), for which the melting point was in the range of 132 to 138 °C.

`O=C(NC[C@@H](C(=O)NO)N1CCCCC1)c1ccc(OCc2ccnc(-c3ccccc3)c2)cc1`: the melting point worked out at 177 °C.

With `COc1ccc2c(c1)c(CCc1cc(=O)n(C3CCCCC3)[nH]1)c(C)n2C(=O)c1ccc(Cl)cc1`, the melting point came out at 110 °C.

For the molecule `Oc1ccccc1C=Nc1cccc(Cl)c1Cl`, the melting point lay within 89 to 90 °C.

`N#Cc1ccc(C(=O)N2C[C@H](OCc3ccccc3)C[C@H]2C(=O)O)cc1` showed a melting point of 58 to 60 °C.

For `C=CC1CC2C3CCC4=CC(=O)CCC4=C3C(c3ccc(-c4ccc(OC)nc4)cc3)CC2(C)C1C(=O)C1CC1` (configuration not stated), the melting point amounted to 197 °C.

In turn, `Brc1nc(-c2ccccc2)nc2ccccc12` returned a melting point of 132 °C.

`CCOC(=O)c1cnc2c(cnn2CCC(C)C)c1O`: the melting point was in the range of 65 to 70 °C.

Take `CCOC(=O)c1c2ccc(Cl)cc2c(-c2ccccc2)n1CCNC(=O)OCc1ccccc1`: the melting point lay within 102 to 104 °C.

`Cn1nc(Cl)cc(Nc2ccccn2)c1=O` yielded a melting point of 201 to 202 °C.

`Cc1ccc(Nc2ncccc2O)cc1` returned a melting point of 134 to 135 °C.

Turning to `CC(C)n1nc(-c2c(OCc3ccccc3)nc(N)nc2-c2ccccc2)ccc1=O`, the melting point was in the range of 162 to 163 °C.

In turn, `CC(C)[C@H](NC(=O)N(C)Cc1cccnc1)C(=O)N[C@@H](Cc1ccccc1)[C@H](O)[C@@H](O)[C@H](Cc1ccccc1)NC(=O)[C@@H](NC(=O)N(C)Cc1cccnc1)C(C)C` had a melting point of 95 to 97 °C.

`Cc1noc(NC(=O)N2CCN(c3nc(-c4cccc(Cl)c4Cl)cs3)CC2)c1C` displayed a melting point of 175 to 176 °C.

Molecule `Nc1c(Cl)cc2nc(O)c(O)nc2c1[N+](=O)[O-]` displayed a melting point of more than 300 °C.

As for `CC(=O)CC1=C(C#N)C(c2cccc(C#N)c2Br)c2c[nH]nc2N1` (configuration not stated), the melting point came to 230 °C.

As for `O=C(c1cccc(C(F)(F)F)c1)c1cc2cccc(Br)c2o1`, the melting point is 75 to 78 °C.

Molecule `COC(=O)[C@@H]1C[C@H](OC(=O)c2ccccc2)C(=O)[C@H]2[C@@]1(C)CC[C@H]1C(=O)O[C@H](c3ccoc3)C[C@]21C` had a melting point of 165 to 170 °C.

Regarding `O=C(c1ccccc1)c1cnn2c1NCCC2`, the melting point lay within 173 to 174 °C.

Molecule `COC(=O)COc1cc(Cl)c(SCc2cc(-c3ccc(C(F)(F)F)cc3)on2)cc1C` had a melting point of 120 to 121 °C.

Regarding `Cn1cc(OS(C)(=O)=O)c(=O)c2cc(F)ccc21`, the melting point lay within 188 to 189 °C.

`Fc1cc(-c2cc(C(F)(F)F)n3ncc(-c4cccnc4)c3n2)ccc1C(F)(F)F` yielded a melting point of 162 °C.
